The record followed here is US11648395B2, “Electrode assemblies for neuromodulation” (Cardionomic, Inc., priority 2018, dated 2023).

This assay concerns normal, non-HF ovine model. Nature of the assay: Correlation of right and left ventricle contractility (max dP/dt) after injection, heartbeat-by-heartbeat. Type of assay: in vivo. The note with it: max(dP/dt) used as surrogate for contractility, after injection (calcium: 5 mL). From the text: The correlation was a heartbeat-by-heartbeat analysis. Pressure measurements, taken by a Millar catheter comprising a MEMS pressure sensor, in units of max(dP/dt) was used as a surrogate for contractility. The first change, a dobutamine injection, provided a very high contractility increase greater than 500%. The average correlation between right ventricle contractility and left ventricle contractility was very good at 0.91, where 1.00 is a perfect correlation. Accordingly, if a subject is given a dobutamine injection, measuring changes to right ventricle contractility can provide accurate information about changes to left ventricle contractility. The first change was repeated three times. The second change, calcium injection at 5 mL, provided a contractility increase of about 20%. […] The average correlation between right ventricle contractility and left ventricle contractility using a Millar (MEMS) sensor on a catheter was very good at 0.91. The average correlation between right ventricle contractility and left ventricle contractility using a fluid-filled lumen of a Swan-Ganz catheter in communication with an external pressure sensor was also very good at 0.87. Accordingly, under certain circumstances such as measurement of an animal (normal, non-HF ovine model) model, if a subject is given a calcium injection, measuring changes to right ventricle contractility with a MEMS sensor or a fluid filled lumen can provide accurate information about changes to left ventricle contractility.

In the case of calcium [Calcium Injection], the “Contractility % Increase” value was ~20%. In addition, the “Contractility % Increase” value (listed as calcium injection) is given as “about 20%”.

Turning to `CC(CCc1ccc(O)cc1)NCCc1ccc(O)c(O)c1` (stereo not shown) [Dobutamine Injection, dobutamine], the “Contractility % Increase” value is recorded as >500%. For the same compound, the “Contractility % Increase” value (listed as dobutamine injection) is “greater than 500%”.
